From PubChem BioAssay AID1645848
≈ marks a conversion by molar mass, not a printed value.

conditions: buffer; pH 7.4; 6.0 h; 150.0 µM

SMILES | solubility kinetic [µg/mL]
Cc1ccc(S(=O)(=O)Nc2ccccc2C(=O)Nc2nccs2)cc1 | 7.17 (≈ 19.2 µM)
O=C(Nc1ncc(Cc2ccc(C(F)(F)F)cc2)s1)c1cn(-c2ccccc2)cn1 | < 1
CNc1cc(-c2nc(Nc3ccc(F)c(F)c3)c3ccccc3n2)ccn1 | < 1
CCc1cccc(NC(=O)c2c(C)oc3nc(C)nc(N4CCCC4)c23)c1 | 14.8 (≈ 40.6 µM)
COc1cc([C@@H](CC(=O)O)c2ccc(C)c(CN3C[C@@H](C)Oc4ccccc4S3(=O)=O)c2)cc2nnn(C)c12 | > 81
COc1ccc(NC2=C(c3ccc(C(F)(F)F)cc3)C(=O)c3ccccc32)cc1 | 1.04 (≈ 2.64 µM)
CN(C)C(=O)c1cccc(-c2csc(N3CCC(C(N)=O)CC3)n2)c1 | > 53
Cc1ccc(S(=O)(=O)Nc2ccccc2Nc2nc(-c3ccccc3)cs2)cc1 | < 1
COc1ccc(OC)c(-c2nc3c(C#N)c[nH]n3c2NC2CCCCC2)c1 | 12.2 (≈ 33.5 µM)
OCC(O)CCO/N=C1/C(c2c(O)[nH]c3ccccc23)=Nc2ccccc21 (centres undefined) | < 1
Fc1ccc(F)c(Nc2nc(-c3ccncc3)nc3ccccc23)c1 | < 1
COc1ccc(-n2c(C)c(C(C)=O)c3cc(O)ccc32)cc1 | 5.69 (≈ 19.3 µM)
O=C(c1cnc(N2CCCCC2)c2ccccc12)N1CCN(c2ccccn2)CC1 | > 59
NC(=O)C1CCN(c2nc(-c3cccnc3)cs2)CC1 | > 43
C/C(=N\NC(N)=S)C1=CCC2C3CC[C@H]4CC(O)CC[C@]4(C)C3CC[C@]12C (some centres undefined) | < 1
O=C(NCCc1ccccc1)C1CCN(c2nc(-c3ccc(Br)cc3)cs2)CC1 | 4.49 (≈ 9.54 µM)
O=c1c(-c2cccs2)ccc2n1C[C@H]1C[C@@H]2CN(C2CCOCC2)C1 | > 79
Cn1c2ccccc2c(=O)c2c(=O)n(-c3ccccc3)c(C3CCCCC3)nc21 | < 1
CCOC(=O)c1ccc(-c2ccc3ncnc(NCCc4cnc[nH]4)c3c2)o1 | 26.2 (≈ 69.4 µM)
O=[N+]([O-])c1cccc(CNc2ccc(S(=O)(=O)Nc3nccs3)cc2)c1O | 10.3 (≈ 25.2 µM)
Oc1cccc2nc3ccccc3nc12 | > 29
COc1ccc(CN2CCNc3cc(Nc4ccccc4)ncc3C2)cn1 | 31.1 (≈ 86 µM)
O=C(Nc1ccc(Oc2ccnc3[nH]ccc23)c(F)c1)c1cccn(-c2ccc(F)cc2)c1=O | < 1
CCN(C(=O)C(NS(=O)(=O)c1ccc(Br)s1)c1ccccc1)c1ccc(C)c(C)c1 (centres undefined) | < 1
CC1=C(C(=O)Nc2ccccc2C)C(c2ccccc2Br)N=C(Nc2nc3ccccc3o2)N1 (centres undefined) | < 1

SMILES | solubility kinetic [µg/mL]
CCOc1ccc(CCNC(=O)c2cc3sccc3n2CCN2CCN(C)CC2)cc1OCC | > 72
Cc1cccc(-n2nc(C)c3c2NC(=O)CSC3c2ccccc2Cl)c1 (centres undefined) | 2.15 (≈ 5.61 µM)
O=C1NC(=S)NC(=O)C1=Cc1cccn1-c1ccc(O)cc1 | 37 (≈ 118 µM)
CC(=O)c1c(C)[nH]c(C(=O)Nc2ccc(OCCCN(C)C)c(S(=O)(=O)Nc3ccc(Br)cc3)c2)c1C | 39 (≈ 66 µM)
Cc1ccc2nc(-c3ccccn3)c(Nc3ccccc3C)n2c1 | < 1
CSc1nc(N)cc(Oc2ccc(-c3nc(Nc4cccc(C(F)(F)F)c4)n[nH]3)cc2)n1 | < 1
COc1ccc(CCN2C(=O)N(c3ccc(F)cc3)C(=O)C2CC(=O)Nc2ccc(F)c(F)c2)cc1 (centres undefined) | 9.71 (≈ 19.5 µM)
O=C(Nc1ncc(Cc2ccc(C(F)(F)F)cc2)s1)c1ccc(-c2cccnc2)o1 | < 1
COc1ccc(C2Nc3ccccc3C(=O)N2Cc2ccco2)cc1 (centres undefined) | 12.2 (≈ 36.4 µM)
O=[N+]([O-])c1cccc(CSc2nc3ncc(Br)cc3[nH]2)c1 | < 1
NC(=O)C1CCN(c2ncc(Br)s2)CC1 | 32.3 (≈ 111 µM)
O=c1ncn2nc(Sc3ccc(F)cc3F)ccc2c1-c1c(Cl)cccc1Cl | > 100
Cc1cc(C)nc(NC(=S)N2CCN(c3ccc(C(F)(F)F)cc3[N+](=O)[O-])CC2)c1 | 6.89 (≈ 15.7 µM)
NC(=O)N1CCN(c2nc(-c3ccc(Br)cc3)cs2)CC1 | 1.84 (≈ 5.01 µM)
N#Cc1nc(-c2cccc3ccccc23)oc1NCc1ccccc1 | < 1
COc1cccc(-c2nc3cc(NC(=O)c4ccc(C)c([N+](=O)[O-])c4)ccc3o2)c1 | < 1
CNC1CCC(N(Cc2ccc(OC)c(-c3ccc(C#N)cc3)c2)C(=O)c2sc3ccccc3c2Cl)CC1 (centres undefined) | 16.7 (≈ 30.7 µM)
COc1ccc(-c2cc(-c3ccccc3)nc(SCC(=O)Nc3ccccc3C)c2C#N)cc1 | < 1
CCOc1cccc(C(=O)Nc2nc3c(s2)CC(C(C)(C)C)CC3)c1 (centres undefined) | < 1
CC(=O)Nc1ncc(S(=O)(=O)Nc2cnccc2C(=O)Nc2nc(-c3ccccc3)cs2)s1 | 56.1 (≈ 112 µM)
Clc1cccc(Nc2nc(-c3ccncc3)nc3ccccc23)c1 | < 1
O=C(CCS(=O)(=O)c1nc(-c2cccs2)cc(C(F)(F)F)n1)Nc1ccc(OC(F)(F)F)cc1 | 11.5 (≈ 21.8 µM)
CC(=O)NCCNC[C@@H]1C=C(C)[C@H](Cc2nnc(-c3ccccc3)o2)C[C@H]1C(C)C | > 61
Cc1ccc(/C=C/c2nc3ccccc3n2S(=O)(=O)c2ccc(Br)cc2)cc1 | 0.184 (≈ 0.406 µM)
